Test [1] has as its system neuroblastoma cells (Kelly, SK-N-BE(2)-C) compared to non-malignant myofibroblasts (WI-38, MRC-5). The test is described as follows: Therapeutic window, neuroblastoma cells versus non-malignant myofibroblasts. The conditions noted are these: non-malignant myofibroblast IC50 versus neuroblastoma cell IC50. In kind it is cell-based, human. As to the method: (§1) Cell viability was determined by the Alamar Blue assay (75 mg resazurin, 12.5 mg methylene blue, 164.5 mg potassium hexacyanoferrate (III), 211 mg potassium hexacyanoferrate (II) trihydrate in 500 mL of phosphate buffered saline). After 6 h incubation with Alamar Blue, the change of fluorescence was measured by Victor 3 multilabel Plate Reader (Perkin Elmer Australia, Melburne, Australia) at an excitation wavelength of 560 nm and an emission wavelength of 590 nm.
(§2) We have shown that the PA2G4 protein increased the half-life of the oncoprotein MYCN through direct binding, and competitive chemical inhibition of this bond by WS6 reduced tumorigenicity both in vitro and in vivo [11]. […] Here, we explored the structure–activity relationship (SAR) of WS6 analogue compounds with the aim to increase efficacy and reduce toxicity. […] The in vitro cytotoxicity of these 14 compounds were measured by cell viability assays using Alamar Blue in MYCN amplified human neuroblastoma (SK-N-BE(2)-C and Kelly) cell lines compared to non-malignant (WI-38, MRC-5) myofibroblast cell lines (Figure 1B,C and Supplementary Figure S1A).

The next test relates to MYCN. The test is described as follows: Western blot of MYCN protein level. In kind it is cell-based, human. The following applies: Kelly and SK-N-BE(2)-C cells; #5333/#5338: 48 h, 10–30 μM. As for the experimental part: (§3) Protein was extracted from cell pellets using RIPA buffer (Sigma) with 10% protease inhibitor (Sigma, Sydney, Australia). Quantification of proteins was conducted using Pierce BCA protein assay kit (Thermo Scientific), according to manufacturer’s instructions. A total of 30–50 μg protein samples were loaded onto Criterion TGX 10% precast gel (Bio-Rad) or NuPAGE™ 4–12% Mini Protein Gel (Invitrogen, Life technologies) and transferred to a nitrocellulose membrane (Bio-Rad). The membrane was blocked in 5% skim milk in Tris-buffered saline with Tween-20 (20 mM Tris-HCl (pH 7.6), 137 mM NaCl, 0.1% Tween-20) for an hour before incubation at 4 °C overnight with the following primary antibodies: mouse anti-MYCN(1:2000, Santa-Cruz, Cat# sc-53993), rabbit anti-PA2G4 (1:2000, Atlas Antibodies, Cat# HPA016484), rabbit anti-PARP (1:1000, Cell Signalling Technologies, Danvers, MA, USA, Cat# 9542), rabbit anti-Caspase-3 (1:500, Cell Signalling Technologies, Cat# 9662), mouse anti-Bcl-2 (1:1000, Cell Signalling Technologies, Cat# 15071), rabbit anti-Bax (1:1000, Cell Signalling Technologies, Cat# 2772), mouse anti-Vinculin (1:2000, Sigma, Cat# V9131), mouse anti-GAPDH (1:2000, Santa-cruz, Cat# sc-365062), rabbit anti-β-actin (1:5000, Sigma, Cat# SAB2100037), rabbit anti-GATA2 (1:1000, Cell Signalling Technologies, Cat# 4595), mouse anti-Flag/DYKDDDDK tag (1:1000, Cell Signalling Technologies, Cat# 8146). Anti-mouse or anti-rabbit horseradish peroxidase secondary antibodies (1:5000, Life technologies, Cat# 31430, 31460) were added and incubated for 2 h at room temperature. Immunoblots were visualised by Clarity ECL reagent (Bio-Rad) and ChemiDoc MP Imaging System (Bio-Rad). Quantification of protein expression was measured by Image Lab software (Bio-Rad) and normalised to loading control.
(§4) Next, we examined whether #5333 and #5338 treatment for 48 h affected the levels of WS6 target proteins, PA2G4, and MYCN in neuroblastoma cells. […] Cell viability was measured following #5333 and #5338 treatments for 48–72 h. […] Cell viability was measured following #5333, #5338, or WS6 treatments for 72 h.

A further test has as its system Kelly cells. The test is described as follows: Alamar Blue cell viability assay, Kelly. It counts as cell-based. The following applies: Homo sapiens, MYCN amplified neuroblastoma cell line.
Text: (§5) The MYCN amplified neuroblastoma cell line SK-N-BE(2)-C was kindly provided by Professor June Biedler (Memorial Sloan Kettering Cancer Centre, New York, NY, USA), and Kelly was obtained from European Collection of Cell Cultures. The two normal lung fibroblast cell lines (MRC-5 and WI-38) were purchased from ATCC. SK-N-BE(2)-C shMYCN#2 doxycycline-inducible cell and Kelly shMYCN#2 doxycycline-inducible cell were custom-made by GenScript (Piscataway, NJ, USA). SK-N-BE(2)-C, SK-N-BE(2)-C shMYCN#2, and SHEP MYCN3 doxycycline-inducible cells were maintained in Dulbecco’s modified Eagle’s medium (DMEM) (Invitrogen, Life Technologies, Waltham, MA, USA) with 10% foetal calf serum (FCS). Kelly and Kelly shMYCN#2 doxycycline-inducible cell were cultured in Roswell Park Memorial Institute (RPMI) 1640 (Invitrogen, Life Technologies) with 10% FCS. MRC-5 and WI-38 were cultured in Alpha-MEM media (Invitrogen, Life Technologies) with 10% FCS. All cells were not cultured for more than 2 months. All used cell lines were authenticated by Cell Bank Australia (Westmead, NSW, Australia) as being free from mycoplasma, and cultured at 37 °C and 5% CO2 in a humidifier incubator.
as §1, §2
A general note: Alamar Blue is a resazurin reagent that responds to reducing activity.

For another test, the system named is WI-38 cells. The test is described as follows: Alamar Blue cell viability assay, WI-38 non-malignant myofibroblasts. In kind it is cell-based. The following applies: Homo sapiens, read-out: IC50 WI-36.
Text: as §5, §1, §2

The test system of a further test is SK-N-BE(2)-C cells. Nature of the test: Alamar Blue cell viability assay, SK-N-BE(2)-C. It counts as cell-based. The conditions noted are these: Homo sapiens, MYCN amplified neuroblastoma cell line.
Text: as §5, §1, §2

Another test has as its system MRC-5 cells. The test is described as follows: Alamar Blue cell viability assay, MRC-5 non-malignant myofibroblasts. It counts as cell-based. The following applies: Homo sapiens, MRC5.
Text: as §5, §1, §2

A further test concerns PA2G4. Nature of the test: Western blot of PA2G4 protein level. The conditions noted are these: Kelly and SK-N-BE(2)-C cells; #5333/#5338: 48 h, seen more consistently at 30 μM, with the exception of #5333 in SK-N-BE(2)-C. It counts as cell-based, human. As to the method: as §3, §4
On the technique in general: In western blotting, separated proteins are transferred to a membrane and probed.

The structures appear in SMILES notation.

For `Cc1cccc(Oc2cc(N3CCC(C(=O)NCc4cccc(C(F)(F)F)c4)CC3)ncn2)c1C` [#3567], in test [1], the “Therapeutic window (fold difference)” value is 2.7 fold. The “MYCN protein levels (Western blot)” value in the test on MYCN is “significantly reduced”. Moreover, the IC50 (in general, the concentration at which inhibition is half-maximal) came to 29 µM in the test with Kelly cells, 80 µM in the test on WI-38 cells, 30 µM in the test on SK-N-BE(2)-C cells and 80 µM in the test on MRC-5 cells. In addition, the “PA2G4 protein levels (Western blot)” value with PA2G4 was “significantly reduced”.
In the case of `Cc1cccc(Oc2cc(N3CCC(C(=O)NCc4cccc(Br)c4)CC3)ncn2)c1C` [#5333], the “Therapeutic window (fold difference)” value in test [1] is reported as 3.6 fold. Also, in the test on MYCN, the “MYCN protein levels (Western blot)” value is “significantly reduced MYCN levels”. For the same compound, the IC50 in the test with Kelly cells came to 28.6 µM; with WI-38 cells, 100 µM; in the test with SK-N-BE(2)-C cells, 26.5 µM; in the test with MRC-5 cells, 100 µM. In addition, the “PA2G4 protein levels (Western blot)” value in the test on PA2G4 was “Reductions in PA2G4 levels”.
As for `Cc1cccc(Oc2cc(N3CCC(C(=O)N[C@@H](C)CCc4ccccc4)CC3)ncn2)c1C` [#5338], the “Therapeutic window (fold difference)” value in test [1] is reported as 3.8 fold. The “MYCN protein levels (Western blot)” value in the test on MYCN is given as “significantly reduced MYCN levels”. The IC50 is 30 µM in the test on Kelly cells, 100 µM in the test with WI-38 cells, 23.3 µM in the test with SK-N-BE(2)-C cells and 100 µM with MRC-5 cells. Also, the “PA2G4 protein levels (Western blot)” value with PA2G4 is “Reductions in PA2G4 levels”.

The values are drawn from paper PMC10046377, “Inhibitors of the Oncogenic PA2G4-MYCN Protein-Protein Interface” (Cancers, 2023).
